Molecular target: T1, Human M4 (Homo sapiens, UniProt P08173)
T1 construct: expressed in transfected cells
T1 sequence (P08173 1-479): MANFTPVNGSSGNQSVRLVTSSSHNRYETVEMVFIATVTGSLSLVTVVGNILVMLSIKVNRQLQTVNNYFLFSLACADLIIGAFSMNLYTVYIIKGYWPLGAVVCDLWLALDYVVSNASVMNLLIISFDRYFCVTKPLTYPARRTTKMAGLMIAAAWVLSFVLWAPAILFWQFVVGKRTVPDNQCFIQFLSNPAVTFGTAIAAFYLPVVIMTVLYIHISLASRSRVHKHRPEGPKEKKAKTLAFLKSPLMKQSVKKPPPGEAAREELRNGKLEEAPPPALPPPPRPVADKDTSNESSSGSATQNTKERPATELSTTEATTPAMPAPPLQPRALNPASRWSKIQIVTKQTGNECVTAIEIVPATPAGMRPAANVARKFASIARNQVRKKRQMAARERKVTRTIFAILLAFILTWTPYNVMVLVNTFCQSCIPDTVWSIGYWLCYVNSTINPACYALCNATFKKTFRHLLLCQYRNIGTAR
Test: mAChR M4 cell-based functional assay (calcium flux, potentiation of EC20 acetylcholine response)
Settings: for Emax at 30 µM / Emax: % ACh maximum at 30 μM, human M4; for EC50: CHO-K1 cells with human M4 and Gqi5, increase in EC20 acetylcholine response
Method: Human M4 cDNA, along with the chimeric G protein Gqi5, were transfected into Chinese hamster ovary (CHO-K1) cells purchased from the American Type Culture Collection using commercially available Lipofectamine 2000 transfection reagent (Dalby, B. et al., Methods (2004) 33(2), 95-103). hM4-Gqi5 cells were grown in Ham's F-12 medium containing 10% heat-inactivated fetal bovine serum (FBS), 20 mM HEPES, 50 μg/mL G418 sulfate (CAS #108321-42-2), and 500 μg/mL Hygromycin B. rM4-Gqi5 cells were grown in DMEM containing 10% heat-inactivated FBS, 20 mM HEPES, 400 μg/mL G418 sulfate, and 500 μg/mL Hygromycin B.
For high throughput measurement of agonist-evoked increases in intracellular calcium, CHO-K1 cells stably expressing muscarinic receptors were plated in growth medium lacking G418 sulfate and hygromycin at 15,000 cells/20 μL/well in Greiner 384-well black-walled, tissue culture (TC)-treated, clear-bottom plates (VWR). Cells were incubated overnight at 37° C. and 5% CO2. The next day, cells were washed using an ELX 405 (BioTek) with assay buffer; the final volume was then aspirated to 20 μL. […] Dye was removed by washing with the ELX 405 and the final volume was aspirated to 20 μL. Compound master plates were formatted in an 11 point concentration-response curve (CRC) format (1:3 dilutions) in 100% DMSO with a starting concentration of 10 mM using a BRAVO liquid handler (Agilent). Test compound CRCs were then transferred to daughter plates (240 nL) using the Echo acoustic plate reformatter (Labcyte, Sunnyvale, Calif.) and then diluted into assay buffer (40 μL) to a 2× stock using a Thermo Fisher Combi (Thermo Fisher Scientific, Waltham, Mass.).
Calcium flux was measured using the Functional Drug Screening System (FDSS) 6000 or 7000 (Hamamatsu Corporation, Tokyo, Japan) as an increase in the fluorescent static ratio. Compounds were applied to cells (20 μL, 2×) using the automated system of the FDSS at 2-4 seconds into the protocol and the data were collected at 1 Hz. At 144 seconds, 10 μL of an EC20 concentration of the muscarinic receptor agonist acetylcholine was added (5×), followed by the addition of 12 μL of an EC80 concentration of acetylcholine at the 230 second time point (5×). Agonist activity was analyzed as a concentration-dependent increase in calcium mobilization upon compound addition. Positive allosteric modulator activity was analyzed as a concentration-dependent increase in the EC20 acetylcholine response. […] Antagonist activity was analyzed as a concentration-dependent decrease in the EC80 acetylcholine response. Concentration-response curves were generated using a four-parameter logistical equation in XLFit curve fitting software (IDBS, Bridgewater, N.J.) for Excel (Microsoft, Redmond, Wash.) or Prism (GraphPad Software, Inc., San Diego, Calif.).

Compound | Emax at 30 µM [%] | EC50 [nM] | Emax [%]
Cc1nc(C)c2c(n1)sc1c(N3CCCC3)nccc12 [Compound 11, 2,4-Dimethyl-8-(pyrrolidin-1-yl)pyrido[4′,3′:4,5]thieno[2,3-d]pyrimidine] | 77 | 73 | 
CCN(CC)c1nccc2c1sc1nc(C)nc(C)c12 [Compound 24, N,N-diethyl-2,4-dimethyl-pyrido[4,5]thieno[1,2-b]pyrimidin-8-amine] | 37.7 | > 10000 | 
CCc1nc(C)c2c(n1)sc1c(NCc3ccc(C(C)(C)O)cc3)nccc12 [Compound 34, 2-[4-[[(2-ethyl-4-methyl-pyrido[4,5]thieno[1,2-b]pyrimidin-8-yl)amino]methyl]phenyl]propan-2-ol] | 88.1 | 601 | 
Cc1nc(C)c2c(n1)sc1c(NCc3ccc(C(C)(C)O)cc3F)nccc12 [Compound 22, 2-[4-[[(2,4-dimethylpyrido[4,5]thieno[1,2-b]pyrimidin-8-yl)amino]methyl]-3-fluoro-phenyl]propan-2-ol] | 88.7 | 840 | 
Cc1nc(C2CC2)nc2sc3c(NCc4ccc(C(C)(C)O)cc4)nccc3c12 [Compound 28, 2-[4-[[(2-cyclopropyl-4-methyl-pyrido[4,5]thieno[1,2-d]pyrimidin-8-yl)amino]methyl]phenyl]propan-2-ol] | 97 | 1390 | 
5-chloro-2,4-dimethyl-8-pyrrolidin-1-yl-pyrido[4,5]thieno[1,2-b]pyrimidine [Compound 45] |  | 693 | 60.9
Cc1nc(C)c2c(n1)sc1c(N3CCOCC3)ncnc12 [Compound 9, 4-(7,9-dimethylthieno[2,3-d:4,5-d′]dipyrimidin-4-yl)morpholine] | 39.1 | 5570 | 
Cc1nc(C2CC2)nc2sc3c(N4CCCCC4)nccc3c12 [Compound 37, 2-cyclopropyl-4-methyl-8-(1-piperidyl)pyrido[4,5]thieno[1,2-d]pyrimidine] | 55 | > 10000 | 
Cc1nc(C)c2c(n1)sc1c(NCc3ccc(C4(O)CCC4)cc3)ncnc12 [Compound 6, 1-(4-(((7,9-dimethylthieno[2,3-d:4,5-d′]dipyrimidin-4-yl)amino)methyl)phenyl)cyclobutan-1-ol] | 81.3 | 2020 | 
Cc1nc(C)c2c(n1)sc1c(N3CC4CC4C3)ncnc12 (centres unmarked) [Compound 8, 4-(3-azabicyclo[3.1.0]hexan-3-yl)-7,9-dimethylthieno[2,3-d:4,5-d′]dipyrimidine] | 75.5 | 156 | 
Cc1nc(CC(C)C)nc2sc3c(NCc4ccc(C(C)(C)O)cc4)nccc3c12 [Compound 36, 2-[4-[[(2-isobutyl-4-methyl-pyrido[4,5]thieno[1,2-b]pyrimidin-8-yl)amino]methyl]phenyl]propan-2-ol] | 66.4 | > 10000 | 
CCc1nc(C)c2c(n1)sc1c(N3CCC(F)(F)C3)nccc12 [Compound 35, 8-(3,3-difluoropyrrolidin-1-yl)-2-ethyl-4-methyl-pyrido[4,5]thieno[1,2-b]pyrimidine] | 96.9 | 263 | 
Cc1nc(C)c2c(n1)sc1c(N3CCC(F)(F)C3)ncnc12 [Compound 18, 4-(3,3-difluoropyrrolidin-1-yl)-7,9-dimethylthieno[2,3-d:4,5-d′]dipyrimidine] | 76.9 | 635 | 
Cc1nc(C)c2c(n1)sc1c(NCc3ccc(C(C)(O)C4CC4)cc3)ncnc12 (centres unmarked) [Compound 7, 1-cyclopropyl-1-(4-(((7,9-dimethylthieno[2,3-d:4,5-d′]dipyrimidin-4-yl)amino)methyl)phenyl)ethan-1-ol] | 71.2 | 2090 | 
CCc1nc(C)c2c(n1)sc1c(NCc3ccc(OC)c(F)c3)nccc12 [Compound 33, 2-ethyl-N-[(3-fluoro-4-methoxy-phenyl)methyl]-4-methyl-pyrido[4,5]thieno[1,2-b]pyrimidin-8-amine] | 87.4 | 1330 | 
Cc1nc(C)c2c(n1)sc1c(N3CCC(F)(F)CC3)ncnc12 [Compound 21, 4-(4,4-difluoropiperidin-1-yl)-7,9-dimethylthieno[2,3-d:4,5-d′]dipyrimidine] | 52.6 | 1410 | 
Cc1nc(C)c2c(n1)sc1c(NCc3ccc(F)c(F)c3)ncc(Cl)c12 [Compound 43, 5-chloro-N-[(3,4-difluorophenyl)methyl]-2,4-dimethyl-pyrido[4,5]thieno[1,2-b]pyrimidin-8-amine] | 50.3 | 4350 | 
Cc1nc(C)c2c(n1)sc1c(NCc3ccc(C(C)(C)O)cc3)ncc(C#N)c12 [Compound 46, 8-((4-(2-hydroxypropan-2-yl)benzyl)amino)-2,4-dimethylpyrido[4′,3′:4,5]thieno[2,3-d]pyrimidine-5-carbonitrile] | 66.7 | 734 | 

Compound | Emax at 30 µM [%] | EC50 [nM] | Emax [%]
Cc1nc(C)c2c(n1)sc1c(NC3CCC3)nccc12 [Compound 26, N-cyclobutyl-2,4-dimethyl-pyrido[4,5]thieno[1,2-b]pyrimidin-8-amine] | 94.8 | 300 | 
Cc1nc(C)c2c(n1)sc1c(N3CC[C@@H](F)C3)ncnc12 [Compound 20, (R)-4-(3-fluoropyrrolidin-1-yl)-7,9-dimethylthieno[2,3-d:4,5-d′]dipyrimidine] | 71.5 | 791 | 
Cc1nc(C)c2c(n1)sc1c(N3CCCCC3)nccc12 [Compound 12, 2,4-dimethyl-8-(1-piperidyl)pyrido[4′,3′:4,5]thieno[2,3-d]pyrimidine] | 57.9 | 73 | 
Cc1nc(C)c2c(n1)sc1c(N3CC[C@H](F)C3)ncnc12 [Compound 19, (S)-4-(3-fluoropyrrolidin-1-yl)-7,9-dimethylthieno[2,3-d:4,5-d′]dipyrimidine] | 62.4 | 1060 | 
Cc1nc(C)c2c(n1)sc1c(N3CCCC3)ncnc12 [Compound 2, 7,9-dimethyl-4-(pyrrolidin-1-yl)thieno[2,3-d:4,5-d′]dipyrimidine] | 51.7 | 288 | 
Cc1nc(C)c2c(n1)sc1c(N3CC4(C3)CC(F)(F)C4)ncnc12 [Compound 17, 4-(6,6-difluoro-2-azaspiro[3.3]heptan-2-yl)-7,9-dimethylthieno[2,3-d:4,5-d′]dipyrimidine] | 42.9 | 185 | 
Cc1nc(C)c2c(n1)sc1c(NC3CCCC3)ncnc12 [Compound 4, N-cyclopentyl-7,9-dimethylthieno[2,3-d:4,5-d′]dipyrimidin-4-amine] | 55.5 | 557 | 
Cc1nc(C2CC2)nc2sc3c(NCc4ccc(C(C)(C)O)c(F)c4)nccc3c12 [Compound 27, 2-[4-[[(2-cyclopropyl-4-methyl-pyrido[4,5]thieno[1,2-d]pyrimidin-8-yl)amino]methyl]-2-fluoro-phenyl]propan-2-ol] | 86.4 | 2270 | 
Cc1nc(C2CC2)nc2sc3c(N4CCCC4)nccc3c12 [Compound 38, 2-cyclopropyl-4-methyl-8-pyrrolidin-1-yl-pyrido[4,5]thieno[1,2-d]pyrimidine] | 65 | 1010 | 
Cc1nc(C)c2c(n1)sc1c(NC3CCC3)ncc(Cl)c12 [Compound 44, 5-chloro-N-cyclobutyl-2,4-dimethyl-pyrido[4,5]thieno[1,2-b]pyrimidin-8-amine] | 60.1 | 997 | 
Cc1nc(C)c2c(n1)sc1c(N3CCC3)ncnc12 [Compound 16, 4-(azetidin-1-yl)-7,9-dimethylthieno[2,3-d:4,5-d′]dipyrimidine] | 59.9 | 1440 | 
Cc1nc(C)c2c(n1)sc1c(NCc3ccc(C(C)(C)O)cc3)nccc12 [Compound 14, 2-(4-(((2,4-dimethylpyrido[4′,3′:4,5]thieno[2,3-d]pyrimidin-8-yl)amino)methyl)phenyl)propan-2-ol] | 80.5 |  | 
COc1ccc(CNc2ncnc3c2sc2nc(C)nc(C)c23)cc1F [Compound 3, N-(3-fluoro-4-methoxybenzyl)-7,9-dimethylthieno[2,3-d:4,5-d′]dipyrimidin-4-amine] | 64.8 | 1160 | 
Cc1nc(C2CC2)nc2sc3c(N4CCC(F)CC4)nccc3c12 [Compound 40, 2-cyclopropyl-8-(4-fluoro-1-piperidyl)-4-methyl-pyrido[4,5]thieno[1,2-d]pyrimidine] | 73 | 1470 | 
CCN(CC)C(=O)c1ccc(CNc2nccc3c2sc2nc(C)nc(C)c23)cc1 [Compound 23, 4-[[(2,4-dimethylpyrido[4,5]thieno[1,2-b]pyrimidin-8-yl)amino]methyl]-N,N-diethyl-benzamide] | 78.8 | 4240 | 
[2H]C([2H])(Nc1ncnc2c1sc1nc(C)nc(C)c12)c1ccc(C(C)(C)O)cc1 [Compound 5, 2-(4-(((7,9-dimethylthieno[2,3-d:4,5-d′]dipyrimidin-4-yl)amino)methyl-d2)phenyl)propan-2-ol] | 79.3 | 1370 | 
5-chloro-N-[(3-fluoro-4-methoxy-phenyl)methyl]-2,4-dimethyl-pyrido[4,5]thieno[1,2-b]pyrimidin-8-amine [Compound 42] |  | 723 | 60.5
Cc1nc(C2CC2)nc2sc3c(NC4CCCC4)nccc3c12 [Compound 39, N-cyclopentyl-2-cyclopropyl-4-methyl-pyrido[4,5]thieno[1,2-d]pyrimidin-8-amine] | 69 | 1860 | 

— patent US10736898B2, “Positive allosteric modulators of the muscarinic acetylcholine receptor M4” (Vanderbilt University, priority 2017, dated 2020)
